#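 Cells were grown in 96-well plates and exposed to each compound for 48 hours at five concentrations; endpoints were interpolated linearly between bracketing concentrations, or set to the highest concentration if not reached. GI50 = concentration required for 50% inhibition of growth.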 Activity calls are given as the source filed them. Rule as the data show it: active = GI50 up to about 1.1 µM and inactive = higher.
# Legend:
# Test in all cases: NCI anticancer screen, dose series, 48 h
# A498 = test system: A498
# A549 = test system: A549
# CCRF-CEM = test system: CCRF-CEM
# EKVX = test system: EKVX
# HCC 2998 = test system: HCC 2998
# HCT-116 = test system: HCT-116
# HOP-62 = test system: HOP-62
# HT-29 = test system: HT-29
# IGROV-1 = test system: IGROV-1
# M14 = test system: M14
# NCI-H522 = test system: NCI-H522
# OVCAR-4 = test system: OVCAR-4
# RXF 393 = test system: RXF 393
# SK-MEL-28 = test system: SK-MEL-28
# SK-OV-3 = test system: SK-OV-3
# SN12C = test system: SN12C
# SNB-19 = test system: SNB-19
# UACC-62 = test system: UACC-62
# LOX IMVI = test system: LOX IMVI
# NCI-H460 = test system: NCI-H460
Structure (SMILES),GI50 (A498),GI50 (A549),GI50 (CCRF-CEM),GI50 (EKVX),GI50 (HCC 2998),GI50 (HCT-116),GI50 (HOP-62),GI50 (HT-29),GI50 (IGROV-1),GI50 (M14),GI50 (NCI-H522),GI50 (OVCAR-4),GI50 (RXF 393),GI50 (SK-MEL-28),GI50 (SK-OV-3),GI50 (SN12C),GI50 (SNB-19),GI50 (UACC-62),GI50 (LOX IMVI),GI50 (NCI-H460)
CCCCCCCCC[C@@H]1C[C@H](O)[C@H](Cc2ccccc2)N1C(=O)OC(C)(C)C,19.5 µM (inactive),18 µM (inactive),20.2 µM (inactive),14.4 µM (inactive),14.4 µM (inactive),17.9 µM (inactive),19.9 µM (inactive),16.7 µM (inactive),18.6 µM (inactive),22.6 µM (inactive),16.4 µM (inactive),17.7 µM (inactive),17.7 µM (inactive),19.7 µM (inactive),19.6 µM (inactive),16.7 µM (inactive),18.6 µM (inactive),17 µM (inactive),–,–
N#C/C(=C\c1ccc(Br)cc1)c1nc(-c2cc3ccccc3oc2=O)cs1,–,35.1 µM (inactive),41.8 µM (inactive),13.3 µM (inactive),19.6 µM (inactive),17.5 µM (inactive),8.73 µM (inactive),23.3 µM (inactive),12.3 µM (inactive),14.9 µM (inactive),7.98 µM (inactive),17.2 µM (inactive),19.2 µM (inactive),28.2 µM (inactive),18.9 µM (inactive),20 µM (inactive),10.7 µM (inactive),10.2 µM (inactive),24.8 µM (inactive),16.7 µM (inactive)
COc1cc(C2c3[nH]c4ccccc4c3[C@@H](Nc3ccc(F)cc3)[C@H]3COC(=O)N23)cc(OC)c1O (stereo partly drawn),2.13 µM (inactive),0.465 µM (active),0.296 µM (active),2.55 µM (inactive),1.58 µM (inactive),1.89 µM (inactive),1.01 µM (active),3.12 µM (inactive),1.32 µM (inactive),2.02 µM (inactive),–,2.55 µM (inactive),–,2.01 µM (inactive),1.1 µM (active),1.35 µM (inactive),1.26 µM (inactive),1.37 µM (inactive),1.21 µM (inactive),0.957 µM (active)
CCCC(=O)OC[n+]1ccc2c(C)c3[nH]c4ccc(OC)cc4c3c(C)c2c1,1.02 µM (active),0.306 µM (active),–,1.01 µM (active),0.482 µM (active),0.0552 µM (active),0.714 µM (active),0.0931 µM (active),0.625 µM (active),0.708 µM (active),1.09 µM (active),1.03 µM (active),1.09 µM (active),0.74 µM (active),1.51 µM (inactive),0.222 µM (active),–,1.06 µM (active),0.23 µM (active),0.0481 µM (active)
COC(=O)[C@@H]1c2cc3c(c(O)c2[C@@H](OC)C[C@@]1(C)O)C(=O)c1c(O)cc2c(c1C3=O)OC1O[C@@]2(C)[C@H](O)[C@@H](N(C)C)[C@@H]1O,0.257 µM (active),0.435 µM (active),0.273 µM (active),0.345 µM (active),0.251 µM (active),0.261 µM (active),0.198 µM (active),0.355 µM (active),0.291 µM (active),–,0.445 µM (active),0.395 µM (active),0.381 µM (active),0.667 µM (active),0.522 µM (active),0.254 µM (active),0.337 µM (active),0.223 µM (active),–,0.129 µM (active)
CC(C)(C)[Si](C)(C)OCC1CCC(n2cnc3c(N)ncnc32)O1 (stereo not drawn),> 100 µM (inactive),–,13.9 µM (inactive),–,–,39.2 µM (inactive),95.7 µM (inactive),94.4 µM (inactive),53.8 µM (inactive),38.8 µM (inactive),–,> 100 µM (inactive),84.1 µM (inactive),72.8 µM (inactive),65 µM (inactive),69.2 µM (inactive),> 100 µM (inactive),59.2 µM (inactive),> 100 µM (inactive),54.7 µM (inactive)
CC1=C2C(=C[C@H]3[C@]4(C)CCCC(C)(C)[C@H]4CC[C@]34O[C@H]24)OC1=O,> 100 µM (inactive),> 100 µM (inactive),–,> 100 µM (inactive),> 100 µM (inactive),> 100 µM (inactive),> 100 µM (inactive),> 100 µM (inactive),> 100 µM (inactive),> 100 µM (inactive),> 100 µM (inactive),> 100 µM (inactive),> 100 µM (inactive),> 100 µM (inactive),> 100 µM (inactive),> 100 µM (inactive),> 100 µM (inactive),> 100 µM (inactive),–,> 100 µM (inactive)
CC(C)CCC1CC2C(=O)N(c3ccccc3)C(=O)C2c2[nH]c3ccccc3c21 (stereo not drawn),1.84 µM (inactive),0.412 µM (active),1.33 µM (inactive),1.55 µM (inactive),1.42 µM (inactive),–,–,3.4 µM (inactive),13.4 µM (inactive),0.288 µM (active),–,4.76 µM (inactive),0.83 µM (active),4.68 µM (inactive),1.36 µM (inactive),2.67 µM (inactive),1.24 µM (inactive),6.21 µM (inactive),1.08 µM (active),1.13 µM (inactive)
COc1cc(C(C)c2cc3c(cc2OCCO)OCO3)cc(OC)c1OC (stereo not drawn),–,2.32 µM (inactive),1.82 µM (inactive),3.79 µM (inactive),2.04 µM (inactive),1.38 µM (inactive),1.74 µM (inactive),0.436 µM (active),0.832 µM (active),1.18 µM (inactive),0.547 µM (active),45.3 µM (inactive),0.63 µM (active),–,2.19 µM (inactive),5.82 µM (inactive),3.93 µM (inactive),0.601 µM (active),2.75 µM (inactive),2.2 µM (inactive)
O=C(O)/C=C/c1c[nH]cn1,> 500 µM (inactive),> 500 µM (inactive),–,> 500 µM (inactive),> 500 µM (inactive),> 500 µM (inactive),493 µM (inactive),> 500 µM (inactive),> 500 µM (inactive),–,> 500 µM (inactive),> 500 µM (inactive),> 500 µM (inactive),> 500 µM (inactive),> 500 µM (inactive),> 500 µM (inactive),> 500 µM (inactive),> 500 µM (inactive),> 500 µM (inactive),> 500 µM (inactive)
Cc1nnc2sc(N/N=C/c3ccccc3)nn12,> 100 µM (inactive),> 100 µM (inactive),> 100 µM (inactive),> 100 µM (inactive),–,> 100 µM (inactive),> 100 µM (inactive),> 100 µM (inactive),> 100 µM (inactive),> 100 µM (inactive),> 100 µM (inactive),> 100 µM (inactive),> 100 µM (inactive),> 100 µM (inactive),27.4 µM (inactive),> 100 µM (inactive),> 100 µM (inactive),23.5 µM (inactive),> 100 µM (inactive),> 100 µM (inactive)
Clc1ncc(C(Cl)(Cl)Cl)nc1-c1ccccc1,–,6.46 µM (inactive),14.6 µM (inactive),2.29 µM (inactive),1.52 µM (inactive),1.87 µM (inactive),2.26 µM (inactive),1.82 µM (inactive),2.4 µM (inactive),2.23 µM (inactive),2.52 µM (inactive),4.04 µM (inactive),1.64 µM (inactive),3.79 µM (inactive),11.9 µM (inactive),2.86 µM (inactive),1.69 µM (inactive),2.56 µM (inactive),4.13 µM (inactive),3.01 µM (inactive)
CCOc1cc(C2CC(c3ccc(NS(=O)(=O)c4cc([N+](=O)[O-])ccc4C)cc3)=NN2S(=O)(=O)c2cc([N+](=O)[O-])ccc2C)ccc1O (stereo not drawn),2.44 µM (inactive),32.4 µM (inactive),33 µM (inactive),22.1 µM (inactive),–,36.5 µM (inactive),30.8 µM (inactive),49.3 µM (inactive),18.5 µM (inactive),34.1 µM (inactive),22.9 µM (inactive),38.6 µM (inactive),29 µM (inactive),83 µM (inactive),39.9 µM (inactive),28.4 µM (inactive),43.6 µM (inactive),–,40.1 µM (inactive),–
COc1ccc(-c2nnc3c4ccccc4sn23)cc1,–,25.4 µM (inactive),7.23 µM (inactive),50.7 µM (inactive),17 µM (inactive),30.2 µM (inactive),5.69 µM (inactive),26.8 µM (inactive),19.8 µM (inactive),26.4 µM (inactive),–,47 µM (inactive),6.43 µM (inactive),22.8 µM (inactive),–,17.8 µM (inactive),29.9 µM (inactive),35.4 µM (inactive),14.8 µM (inactive),4.58 µM (inactive)
CC1(C)CNC(=O)C2(/C=N/C(C)(C)CNC(=O)C3(/C=N/1)CCCO3)CCCO2 (stereo not drawn),> 10 µM (inactive),> 10 µM (inactive),> 10 µM (inactive),> 10 µM (inactive),> 10 µM (inactive),> 10 µM (inactive),> 10 µM (inactive),> 10 µM (inactive),> 10 µM (inactive),> 10 µM (inactive),> 10 µM (inactive),> 10 µM (inactive),> 10 µM (inactive),> 10 µM (inactive),> 10 µM (inactive),> 10 µM (inactive),> 10 µM (inactive),> 10 µM (inactive),–,–
